Laboratory results from ChEMBL document CHEMBL3763052, “Novel N-acyl-carbazole derivatives as 5-HT7R antagonists” (Eur J Med Chem, 2016).

Assays:
[1] = Mean residential time in Sprague-Dawley rat at 10 mg/kg, iv by LC-MS/MS analysis; format: ADME, organism-based; conditions: in vivo
[2] = molecular target: T1, 5-hydroxytryptamine receptor 7 (Homo sapiens, UniProt P34969); assay: Displacement of [3H]LSD from 5-HT7 receptor (unknown origin) expressed in CHO-K1 cells by liquid scintillation counting method; format: cell-based
[3] = molecular target: T1, 5-hydroxytryptamine receptor 7; assay: Binding affinity to recombinant 5-HT7 receptor (unknown origin) after 1.5 hrs by radioligand displacement assay
[4] = molecular target: T2, 5-hydroxytryptamine receptor 1A (Homo sapiens, UniProt P08908); assay: Binding affinity to recombinant 5-HT1A receptor (unknown origin) after 1.5 hrs by radioligand displacement assay
T2 sequence (P08908 whole entry): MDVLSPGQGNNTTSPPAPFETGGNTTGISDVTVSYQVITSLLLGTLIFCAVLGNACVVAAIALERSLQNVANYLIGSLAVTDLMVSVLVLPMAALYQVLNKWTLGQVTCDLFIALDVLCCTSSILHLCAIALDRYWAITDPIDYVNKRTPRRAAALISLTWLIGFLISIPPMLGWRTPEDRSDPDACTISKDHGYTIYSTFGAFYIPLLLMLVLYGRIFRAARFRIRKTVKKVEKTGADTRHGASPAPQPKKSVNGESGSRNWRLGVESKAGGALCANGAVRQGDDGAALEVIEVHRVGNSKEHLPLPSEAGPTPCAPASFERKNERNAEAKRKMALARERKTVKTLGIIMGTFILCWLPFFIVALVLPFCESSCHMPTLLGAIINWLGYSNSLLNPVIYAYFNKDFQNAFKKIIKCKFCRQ

[5] = molecular target: 5-hydroxytryptamine receptor 1B (Homo sapiens, UniProt P28222); assay: Binding affinity to recombinant 5-HT1B receptor (unknown origin) after 1.5 hrs by radioligand displacement assay
[6] = molecular target: 5-hydroxytryptamine receptor 1D (Homo sapiens, UniProt P28221); assay: Binding affinity to recombinant 5-HT1D receptor (unknown origin) after 1.5 hrs by radioligand displacement assay
[7] = molecular target: 5-hydroxytryptamine receptor 2A (Homo sapiens, UniProt P28223); assay: Binding affinity to recombinant 5-HT2A receptor (unknown origin) after 1.5 hrs by radioligand displacement assay
[8] = molecular target: 5-hydroxytryptamine receptor 2B (Homo sapiens, UniProt P41595); assay: Binding affinity to recombinant 5-HT2B receptor (unknown origin) after 1.5 hrs by radioligand displacement assay
[9] = molecular target: T3, 5-hydroxytryptamine receptor 2C (Homo sapiens, UniProt P28335); assay: Binding affinity to recombinant 5-HT2C receptor (unknown origin) after 1.5 hrs by radioligand displacement assay
T3 sequence (P28335 whole entry): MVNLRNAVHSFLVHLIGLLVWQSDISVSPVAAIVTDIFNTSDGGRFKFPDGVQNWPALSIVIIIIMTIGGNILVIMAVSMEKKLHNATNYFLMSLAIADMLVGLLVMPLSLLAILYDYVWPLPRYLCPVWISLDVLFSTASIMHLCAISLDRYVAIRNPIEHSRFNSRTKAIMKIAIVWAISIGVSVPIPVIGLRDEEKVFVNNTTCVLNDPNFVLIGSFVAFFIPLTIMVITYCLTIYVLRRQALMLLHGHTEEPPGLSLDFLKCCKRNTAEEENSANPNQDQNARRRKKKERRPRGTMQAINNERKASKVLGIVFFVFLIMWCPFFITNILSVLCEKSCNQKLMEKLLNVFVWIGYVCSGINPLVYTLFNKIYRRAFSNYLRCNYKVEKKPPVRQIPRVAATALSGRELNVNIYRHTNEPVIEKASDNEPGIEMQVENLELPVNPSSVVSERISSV

[10] = molecular target: T4, 5-hydroxytryptamine receptor 3A (Homo sapiens) (UniProt P46098); assay: Binding affinity to recombinant 5-HT3 receptor (unknown origin) at 10 uM after 1.5 hrs by radioligand displacement assay
T4 sequence (whole entry): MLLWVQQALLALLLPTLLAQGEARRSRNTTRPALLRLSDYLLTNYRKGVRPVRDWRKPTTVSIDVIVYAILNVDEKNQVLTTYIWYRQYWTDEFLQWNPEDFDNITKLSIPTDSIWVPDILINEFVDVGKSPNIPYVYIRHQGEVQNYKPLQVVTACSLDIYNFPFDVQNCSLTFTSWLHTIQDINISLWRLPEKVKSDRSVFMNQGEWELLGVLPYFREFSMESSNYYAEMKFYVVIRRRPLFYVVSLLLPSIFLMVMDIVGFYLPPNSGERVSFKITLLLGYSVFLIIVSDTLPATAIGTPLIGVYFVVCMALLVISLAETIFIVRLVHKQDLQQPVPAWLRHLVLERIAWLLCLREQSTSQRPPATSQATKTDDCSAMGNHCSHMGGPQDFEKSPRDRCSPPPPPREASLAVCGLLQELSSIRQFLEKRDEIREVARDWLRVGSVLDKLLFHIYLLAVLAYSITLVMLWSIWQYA

[11] = molecular target: 5-hydroxytryptamine receptor 5A (Homo sapiens, UniProt P47898); assay: Binding affinity to recombinant 5-HT5 receptor (unknown origin) at 10 uM after 1.5 hrs by radioligand displacement assay
[12] = molecular target: 5-hydroxytryptamine receptor 6 (Homo sapiens, UniProt P50406); assay: Binding affinity to recombinant 5-HT6 receptor (unknown origin) at 10 uM after 1.5 hrs by radioligand displacement assay
[13] = molecular target: T1, 5-hydroxytryptamine receptor 7; assay: Antagonist activity at human 5-HT7 receptor expressed in HEK293 cells assessed as inhibition of 5-HT-induced cAMP production at 10 uM pretreated for 10 mins followed by stimulation with 5-HT for 30 mins by fluorescence analysis; format: functional, cell-based
[14] = molecular target: T1, 5-hydroxytryptamine receptor 7; assay: Agonist activity at human 5-HT7 receptor expressed in HEK293 cells assessed as increase in cAMP level at 12.5 uM by fluorescence analysis relative to 5-CT; format: functional, cell-based
[15] = Metabolic stability in human liver microsomes assessed as compound remaining at 1 uM after 30 mins by LC-MS/MS in presence of NADPH; format: ADME; conditions: read-out: Stability
[16] = AUC (0 to infinity) in Sprague-Dawley rat at 10 mg/kg, iv by LC-MS/MS analysis; format: ADME, organism-based; parameters: dose 10 mg/kg, route intravenous, time infinity; conditions: in vivo
[17] = AUC (0 to infinity) in Sprague-Dawley rat at 10 mg/kg, po by LC-MS/MS analysis; format: ADME, organism-based; parameters: dose 10 mg/kg, route oral, time infinity; conditions: in vivo
[18] = AUC (0 to last) in Sprague-Dawley rat at 10 mg/kg, iv by LC-MS/MS analysis; format: ADME, organism-based; parameters: dose 10 mg/kg, time 0 - last, route intravenous; conditions: in vivo
[19] = AUC (0 to last) in Sprague-Dawley rat at 10 mg/kg, po by LC-MS/MS analysis; format: ADME, organism-based; parameters: dose 10 mg/kg, time 0 - last, route oral; conditions: in vivo
[20] = Terminal half life in Sprague-Dawley rat at 10 mg/kg, iv by LC-MS/MS analysis; format: ADME, organism-based; conditions: in vivo, read-out: beta t1/2
[21] = Terminal half life in Sprague-Dawley rat at 10 mg/kg, po by LC-MS/MS analysis; format: ADME, organism-based; conditions: in vivo, read-out: beta t1/2
[22] = Cmax in Sprague-Dawley rat at 10 mg/kg, po by LC-MS/MS analysis; format: ADME, organism-based; parameters: dose 10 mg/kg, route oral; conditions: in vivo
[23] = Tmax in Sprague-Dawley rat at 10 mg/kg, po by LC-MS/MS analysis; format: ADME, organism-based; conditions: in vivo
[24] = Clearance in Sprague-Dawley rat at 10 mg/kg, iv by LC-MS/MS analysis; format: ADME, organism-based; conditions: in vivo
[25] = Volume of distribution at steady state in Sprague-Dawley rat at 10 mg/kg, iv by LC-MS/MS analysis; format: ADME, organism-based; conditions: in vivo, read-out: Vdss
[26] = Plasma concentration in Sprague-Dawley rat at 10 mg/kg, iv after 2 hrs by LC-MS/MS analysis; format: ADME, organism-based
[27] = Plasma concentration in Sprague-Dawley rat at 10 mg/kg, po after 2 hrs by LC-MS/MS analysis; format: ADME, organism-based
[28] = Drug uptake in Sprague-Dawley rat brain at 10 mg/kg, iv after 2 hrs by LC-MS/MS analysis; format: ADME, organism-based; conditions: read-out: Drug uptake
[29] = Drug uptake in Sprague-Dawley rat brain at 10 mg/kg, po after 2 hrs by LC-MS/MS analysis; format: ADME, organism-based; conditions: read-out: Drug uptake
[30] = system: Mus musculus; assay: Antidepressant activity in ICR mouse assessed as immobility time at 30 mg/kg, iv administered 30 mins before testing by forced swim test (reference value: 159.1 sec); format: functional
[31] = Ratio of drug uptake in brain to plasma of Sprague-Dawley rat at 10 mg/kg, iv after 2 hrs by LC-MS/MS analysis; format: ADME, organism-based; conditions: read-out: BPR
[32] = Oral bioavailability in Sprague-Dawley rat at 10 mg/kg by LC-MS/MS analysis; format: ADME, organism-based; conditions: in vivo
[33] = Ratio of drug uptake in brain to plasma of Sprague-Dawley rat at 10 mg/kg, po after 2 hrs by LC-MS/MS analysis; format: ADME, organism-based; conditions: read-out: BPR

T1 sequence (P34969 whole entry): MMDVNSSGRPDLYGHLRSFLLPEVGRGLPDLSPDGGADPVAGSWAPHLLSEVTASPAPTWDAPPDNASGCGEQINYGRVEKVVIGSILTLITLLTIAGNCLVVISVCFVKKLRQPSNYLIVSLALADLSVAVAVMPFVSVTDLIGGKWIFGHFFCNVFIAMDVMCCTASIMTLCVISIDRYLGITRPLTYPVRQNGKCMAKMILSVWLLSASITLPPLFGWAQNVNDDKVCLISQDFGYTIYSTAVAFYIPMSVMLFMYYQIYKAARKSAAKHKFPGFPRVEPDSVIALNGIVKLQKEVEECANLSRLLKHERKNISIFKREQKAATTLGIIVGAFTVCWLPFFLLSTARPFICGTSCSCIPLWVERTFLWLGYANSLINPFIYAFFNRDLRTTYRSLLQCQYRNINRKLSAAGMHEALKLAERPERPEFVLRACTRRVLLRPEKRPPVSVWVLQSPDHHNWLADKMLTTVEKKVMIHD
Sequence of 5-hydroxytryptamine receptor 6 (P50406 whole entry): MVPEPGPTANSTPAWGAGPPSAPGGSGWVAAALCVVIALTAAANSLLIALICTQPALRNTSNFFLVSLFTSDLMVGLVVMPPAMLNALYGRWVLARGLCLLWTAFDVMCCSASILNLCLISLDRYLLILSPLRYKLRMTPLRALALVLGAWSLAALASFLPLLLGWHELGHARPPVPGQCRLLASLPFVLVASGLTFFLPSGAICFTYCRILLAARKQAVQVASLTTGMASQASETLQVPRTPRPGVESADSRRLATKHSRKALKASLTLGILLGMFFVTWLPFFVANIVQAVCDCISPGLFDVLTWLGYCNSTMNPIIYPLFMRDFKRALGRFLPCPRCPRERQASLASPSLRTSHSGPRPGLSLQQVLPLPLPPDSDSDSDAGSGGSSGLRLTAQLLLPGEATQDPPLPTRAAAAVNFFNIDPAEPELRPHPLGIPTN
Sequence of 5-hydroxytryptamine receptor 2B (P41595 whole entry): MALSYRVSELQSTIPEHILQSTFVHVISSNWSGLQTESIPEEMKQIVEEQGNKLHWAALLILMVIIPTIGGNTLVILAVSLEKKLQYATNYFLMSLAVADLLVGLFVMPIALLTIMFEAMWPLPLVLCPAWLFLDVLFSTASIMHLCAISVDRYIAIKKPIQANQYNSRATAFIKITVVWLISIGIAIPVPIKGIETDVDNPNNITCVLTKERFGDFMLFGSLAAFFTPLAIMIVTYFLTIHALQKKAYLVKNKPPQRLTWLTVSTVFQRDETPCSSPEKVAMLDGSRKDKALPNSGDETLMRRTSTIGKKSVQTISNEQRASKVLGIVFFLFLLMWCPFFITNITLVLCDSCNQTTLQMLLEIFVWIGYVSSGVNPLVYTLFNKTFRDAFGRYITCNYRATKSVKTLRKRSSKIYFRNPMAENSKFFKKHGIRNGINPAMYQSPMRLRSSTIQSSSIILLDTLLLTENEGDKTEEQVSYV
Sequence of 5-hydroxytryptamine receptor 1B (P28222 whole entry): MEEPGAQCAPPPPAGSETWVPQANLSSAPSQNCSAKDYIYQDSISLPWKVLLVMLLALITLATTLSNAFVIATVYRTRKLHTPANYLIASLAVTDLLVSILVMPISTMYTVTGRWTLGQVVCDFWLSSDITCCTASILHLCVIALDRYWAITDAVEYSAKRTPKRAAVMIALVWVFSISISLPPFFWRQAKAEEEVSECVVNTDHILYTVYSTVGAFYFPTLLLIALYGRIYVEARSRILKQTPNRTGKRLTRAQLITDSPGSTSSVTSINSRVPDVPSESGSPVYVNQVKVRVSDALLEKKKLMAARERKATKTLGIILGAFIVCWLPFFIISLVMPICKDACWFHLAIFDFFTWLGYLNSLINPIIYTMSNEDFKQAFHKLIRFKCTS
Sequence of 5-hydroxytryptamine receptor 1D (P28221 whole entry): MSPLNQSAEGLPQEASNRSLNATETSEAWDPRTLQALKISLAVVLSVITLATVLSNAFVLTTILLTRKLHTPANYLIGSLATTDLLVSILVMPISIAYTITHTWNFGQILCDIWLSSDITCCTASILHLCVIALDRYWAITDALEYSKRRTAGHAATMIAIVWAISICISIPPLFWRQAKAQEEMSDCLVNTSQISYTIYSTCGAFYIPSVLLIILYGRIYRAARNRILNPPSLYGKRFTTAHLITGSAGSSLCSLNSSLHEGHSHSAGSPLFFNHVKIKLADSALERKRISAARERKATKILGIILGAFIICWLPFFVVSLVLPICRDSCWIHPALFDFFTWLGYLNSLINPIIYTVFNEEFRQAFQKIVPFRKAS
Sequence of 5-hydroxytryptamine receptor 2A (P28223 whole entry): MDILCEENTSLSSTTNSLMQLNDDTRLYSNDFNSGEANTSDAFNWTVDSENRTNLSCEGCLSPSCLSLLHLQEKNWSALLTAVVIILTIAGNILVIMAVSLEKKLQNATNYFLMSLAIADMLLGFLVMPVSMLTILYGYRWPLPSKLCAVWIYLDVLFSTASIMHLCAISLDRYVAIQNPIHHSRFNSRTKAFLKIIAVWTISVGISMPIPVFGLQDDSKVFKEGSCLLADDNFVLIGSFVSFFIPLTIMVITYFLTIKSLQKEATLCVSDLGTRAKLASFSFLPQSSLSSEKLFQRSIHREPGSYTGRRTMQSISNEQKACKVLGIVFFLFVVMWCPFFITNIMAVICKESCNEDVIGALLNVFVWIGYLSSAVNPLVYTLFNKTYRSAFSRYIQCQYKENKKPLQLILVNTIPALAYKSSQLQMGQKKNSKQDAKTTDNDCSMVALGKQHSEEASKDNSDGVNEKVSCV
Sequence of 5-hydroxytryptamine receptor 5A (P47898 whole entry): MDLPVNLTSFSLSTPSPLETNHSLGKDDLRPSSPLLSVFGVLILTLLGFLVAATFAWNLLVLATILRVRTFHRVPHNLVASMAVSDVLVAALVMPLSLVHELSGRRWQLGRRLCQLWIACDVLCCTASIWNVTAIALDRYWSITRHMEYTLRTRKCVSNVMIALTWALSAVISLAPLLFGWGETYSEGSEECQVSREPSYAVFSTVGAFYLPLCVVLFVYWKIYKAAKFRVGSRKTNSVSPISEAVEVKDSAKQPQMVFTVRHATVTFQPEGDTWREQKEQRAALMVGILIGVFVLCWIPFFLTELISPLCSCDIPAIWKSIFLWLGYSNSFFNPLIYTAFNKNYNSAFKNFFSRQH

COc1ccccc1N1CCN(CCCCCC(=O)n2c3ccccc3c3ccccc32)CC1.Cl
MRT [1]: 2.81 h
Ki [2]: 74 nM
Ki [3]: 74 nM
Ki [4]: 549 nM
Ki [5]: 845 nM
Ki [6]: 1280 nM
Ki [7]: 1260 nM
Ki [8]: 419 nM
Ki [9]: 588 nM
inhibition [10]: 18%
inhibition [11]: 34%
inhibition [12]: 31%
inhibition [13]: 75.2%
Activity [14]: 22.2%
remaining at 0.5 h, 1 µM [15]: 50.8%
AUC(0-inf) [16]: 1470 ng·h/mL
AUC(0-inf) [17]: 998 ng·h/mL
AUC(0-t) [18]: 1170 ng·h/mL
AUC(0-t) [19]: 561 ng·h/mL
half-life [20]: 3.32 h
half-life [21]: 6.62 h
Cmax [22]: 160 ng/mL
Tmax [23]: 3.57 h
clearance [24]: 114 mL/min/kg
Vd [25]: 33.5 L/kg
concentration at 2 h [26]: 210 ng/mL
concentration at 2 h [27]: 70 ng/mL
concentration at 2 h [28]: 268 ng/mL
concentration at 2 h [29]: 1530 ng/mL
Time [30]: 118.9 s
Kp at 2 h [31]: 1.23
bioavailability [32]: 67.8%
Kp at 2 h [33]: 25.5
